Peptide text beside a SMILES is read from it.
Key:
[1] = tested on: CHO-K1 cells (7WD10 cells) that stably expressed APP protein; test: Aβ protein production inhibition experiment in 7WD10 cells (sAPPβ, βCTF, Aβ); assay type: cell-based; details: polypeptide 1, 5, 10, 20, and 50 μM
Method: (§1) An experiment was conducted wherein #1, #2, and #4 polypeptides were reacted with CHO-K1 cells (7WD10 cells) that stably expressed APP protein and transiently expressed Notch to confirm the production of Aβ protein and cleavage of Notch protein.

[2] = tested on: Aβ protein in hippocampus; test: Aβ protein production inhibition after direct administration in mouse hippocampus; assay type: in vivo; details: C57BL/6 mouse, 0.2 ng/g directly in right-side hippocampus, three hours after administration, relative to rev#4
Method: A #4 polypeptide solution using 50% DMSO as a solvent was administered to a C57BL/6 mouse in an amount of 0.2 ng/g. The solution was directly administered in the right-side hippocampus of the mouse. Three hours after administration, the right-side hippocampus was extracted, and the amount of Aβ protein extracted by TBS and 6M guanidine hydrochloride was measured by using the sandwich ELISA method (product name: human/rat β amyloid (40) ELISA Kit Wako for immunochemistry, product No. 294-62501; product name: human/rat β amyloid (42) ELISA Kit Wako for immunochemistry, product No. 290-62501: both manufactured by Wako Pure Chemical Industries, Ltd.). As a negative control experiment, a polypeptide (rev#4: SEQ ID NO: 19) having the amino acid sequence in inverse order of #4 polypeptide was administered to the left-side hippocampus of the same mouse.
FIG. 9 is a graph showing the Aβ protein extracted from the mouse was quantified. The vertical axis indicates the relative value taking the result of negative control experiment in which rev#4 polypeptide was administered as 100%.

[3] = tested on: Notch transiently expressed in CHO-K1 cells (7WD10 cells); test: Cleavage of Notch protein (NICD) in 7WD10 cells; assay type: cell-based; details: polypeptide 1, 5, 10, 20, and 50 μM
Method: as §1

CHO-K1 cells = test: Mouse Aβ production inhibition experiment, CHO-K1 cells; assay type: cell-based; details: polypeptide 20 μM, CHO-K1 cells expressing mouse-type APP, anti-mouse Aβ antibody Western blotting
Method: (§2) #1, #2, and #4 polypeptides were added to the culture solutions of CHO-K1 cells and Neuro 2A cells (N2A) in such a manner that the final concentration was 20 μM. As a control, L685458 (i.e., a γ-secretase inhibitor) and DMSO were added thereto in such a manner that the final concentration was 20 μM.
(§3) Thereafter, Aβ contained in the cell culture medium was identified by using a Western-blotting method with an antibody (anti-mouse Aβ antibody) that recognizes Aβ. […] In the figure, L indicates L685458, which is a γ-secretase inhibitor (final concentration of 1 μM).

APP in CHO-K1 cells = target: T1, APP in CHO-K1 cells (Cricetulus griseus, UniProt A0A8C2MGG8); test: Analysis of subcellular distribution in CHO-K1 cells; assay type: cell-based; details: Biotin-modified #4 polypeptide, avidin-modified Alexa488; CHO-K1 cells expressing endogenous APP at a low level
T1 construct: CHO-K1 cells expressing endogenous APP protein at a low level; endogenous in cells; host or cells: CHO-K1
T1 sequence (A0A8C2MGG8 18-770): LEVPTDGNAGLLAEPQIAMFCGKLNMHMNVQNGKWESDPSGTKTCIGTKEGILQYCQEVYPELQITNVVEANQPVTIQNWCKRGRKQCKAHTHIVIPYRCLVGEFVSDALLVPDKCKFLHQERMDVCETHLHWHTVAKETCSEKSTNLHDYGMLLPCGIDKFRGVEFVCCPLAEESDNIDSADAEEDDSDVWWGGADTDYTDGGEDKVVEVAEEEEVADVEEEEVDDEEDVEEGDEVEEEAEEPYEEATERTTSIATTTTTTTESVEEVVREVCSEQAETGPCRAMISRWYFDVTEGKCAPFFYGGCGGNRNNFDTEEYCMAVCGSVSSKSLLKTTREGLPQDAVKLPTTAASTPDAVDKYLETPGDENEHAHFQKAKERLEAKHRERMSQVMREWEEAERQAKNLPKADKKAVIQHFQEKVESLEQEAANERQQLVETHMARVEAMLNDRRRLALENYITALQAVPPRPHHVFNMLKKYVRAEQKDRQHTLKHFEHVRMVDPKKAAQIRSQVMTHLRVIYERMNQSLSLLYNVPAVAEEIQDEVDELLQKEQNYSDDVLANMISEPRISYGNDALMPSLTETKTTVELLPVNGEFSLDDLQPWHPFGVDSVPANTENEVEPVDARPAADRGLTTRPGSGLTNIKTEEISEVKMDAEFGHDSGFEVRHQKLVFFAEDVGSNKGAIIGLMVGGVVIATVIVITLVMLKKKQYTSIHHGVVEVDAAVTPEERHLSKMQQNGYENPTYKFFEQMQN
Method: (§4) Biotin-modified #4 polypeptide was prepared using a known method. This polypeptide was allowed to react with CHO-K1 cells and the 7WD10 cells mentioned above, and the resulting cells were immobilized, and then treated with Triton X-100. Thereafter, avidin-modified Alexa488 was reacted with the above. As the negative control experiment, an experiment was conducted reacting avidin-modified Alexa 488 in place of Biotin-modified #4 polypeptide.

Aβ in the cerebrum = test: Intraperitoneal administration to mouse, Aβ in cerebrum; assay type: in vivo; details: 150 mg/kg intraperitoneally, three consecutive days, wild-type mice
Method: 150 mg/kg #4 polypeptide dissolved in DMSO was intraperitoneally administered to ten wild-type mice (C57 BL/6 N Cr Slc, seven weeks old). The administration was conducted for three consecutive days. Four days after, the mice were euthanized to extract the cerebrum.
The extracted cerebrums were dissolved by using a known method, subjected to immunoprecipitation with anti-4G8 antibody, and then subjected to Western blotting using the anti-mouse Aβ antibody. An experiment was conducted in the same manner except that only DMSO was administered as the negative control experiment group (ten mice).
In the Western blotting, an experiment was conducted using 5, 10, 50, 100, and 200 pg rodent-originated Aβ as the standard reference material. FIG. 10(A−1) and […] show the results.

Neuro 2A cells (N2A) = test: Mouse Aβ production inhibition experiment, Neuro 2A cells; assay type: cell-based; details: polypeptide 20 μM, Neuro2A cells expressing mouse-type APP, anti-mouse Aβ antibody Western blotting
Method: as §2, §3

[4] = target: T2, APP in 7WD10 cells overexpressing APP (Homo sapiens, UniProt P05067); test: Analysis of subcellular distribution in 7WD10 cells; assay type: cell-based; details: Biotin-modified #4 polypeptide
T2 construct: expressed in transfected cells; host or cells: 7WD10
Method: as §4

[5] = target: γ-secretase against βCTF (C99-FLAG) (Homo sapiens, UniProt P05067); test: γ-Secretase activity inhibition experiment in vitro, C99-FLAG substrate; assay type: biochemical; details: polypeptide 50 μM, 4 hours, 37° C., Western blotting
Method: A polypeptide having βCTF (C99-FLAG: SEQ ID NO: 16) and mouse-derived Notch protein having a FLAG peptide at the C-terminal side (modification of NCBI Accession No. Q01705.2; SEQ ID NO: 17; hereunder referred to as “Notch”) shown in FIG. 2(A) were each made into a solution having a final concentration of 50 nM.
To these solutions, 9-7 polypeptide, 6-5 polypeptide, #1 polypeptide, #2 polypeptide, #3 polypeptide, and #4 polypeptide were added in such a manner that the final concentrations were 50 μM, followed by reacting with 50 μL of CHAPSO-solubilized membrane fraction (γ-secretase-containing fraction) for 4 hours. The reaction temperature was 37° C. As a negative control experiment, DMSO was used in place of the six types of polypeptides described above.
Each sample after completion of the reaction was measured in the following manner. As shown in FIG. 2(A), a sample using C99-FLAG was subjected to Western blotting using a monoclonal antibody (82E-1) that specifically recognizes the N terminal of C99-FLAG, and the amount of Aβ40 protein produced by the cleavarage by γ-secretase was measured. In contrast, the reaction sample using Notch-FLAG was subjected to Western blotting using an anti-FLAG monoclonal antibody, and the amount of NICD produced to the separete by γ-secretase was also measured. FIG. 2(B) and FIG. 2(C) show the results.
An experiment was conducted in the same manner as in Experimental Example 1 described above, except that only #1 polypeptide was used and the amount of #1 polypeptide was selected so that the final concentrations were 0.5, 1, 5, 10, 20, and 50 μM.
An experiment was conducted in the same manner as in Experimental Example 1 described above, except that S4 polypeptide was used as the polypeptide, and each addition amount was set in such a manner that the final concentrations were 1, 5, 10, 20, and 50 μM. In this Experimental Example, #4 polypeptide was added in such a manner that the final result was 50 μM.

CC[C@H](C)[C@H](NC(=O)[C@H](CC(=O)O)NC(=O)[C@@H](NC(=O)[C@@H](NC(=O)[C@H](CS)NC(=O)[C@H](Cc1ccc(O)cc1)NC(=O)[C@H](CS)NC(=O)[C@H](CC(=O)O)NC(=O)[C@H](CS)NC(=O)[C@@H](NC(=O)[C@@H](NC(=O)[C@H](CC(C)C)NC(=O)[C@H](Cc1c[nH]cn1)NC(=O)[C@H](CCSC)NC(C)=O)C(C)C)[C@@H](C)CC)[C@@H](C)O)[C@@H](C)O)C(=O)N[C@@H](CS)C(=O)N[C@@H](Cc1ccc(O)cc1)C(=O)N[C@@H](CS)C(=O)N[C@@H](Cc1ccc(O)cc1)C(=O)N[C@@H](CO)C(=O)N[C@@H](CS)C(=O)N[C@H](C(=O)N1CCC[C@H]1C(=O)N[C@@H](CC(N)=O)C(N)=O)[C@@H](C)O [#4] (Ac-MHLVICDCYCTTDICYCYSCTPN-NH2)
Aβ protein in the cell culture medium (released Aβ) [1]: decreased depending on the concentration | Aβ protein in the cell lysate (intracellular Aβ) [1]: no longer present in a manner dependent on the final concentration | sAPP in the cell lysate [1]: no longer present in a manner dependent on the final concentration | βCTF (C99) in the cell lysate [1]: no longer present in a manner dependent on the final concentration | Aβ protein production in hippocampus (sandwich ELISA) [2]: remarkably inhibited Aβ protein production | abundance of the NICD in the cell lysate [3]: not decreased | production of Aβ in the culture medium (CHO-K1 cells): the production of Aβ in the culture medium was reduced | binding to APP in cells (APP in CHO-K1 cells): binded to APP in the cells | Aβ production inhibition (bands quantified with densitometry) (Aβ in the cerebrum): excellent Aβ production inhibition effect | bands indicating Aβ in the cerebrum (Western blotting) (Aβ in the cerebrum; compared to DMSO): the number of bands indicating Aβ was reduced | production of Aβ in the culture medium (Neuro 2A cells (N2A)): the production of Aβ in the culture medium was reduced | entry into cells ([4]; CHO-K1 and 7WD10 cells): entering the cells | binding to intracellular APP ([4]; avidin-modified Alexa488, 7WD10 cells overexpressing APP): remarkably binded also to the intracellular APP | cleavage activity of γ-secretase against βCTF (Aβ40 from C99-FLAG) [5]: inhibited more cleavage activity of γ-secretase against βCTF

From patent US9045525B2, “Amyloid β-protein-specific production-inhibiting polypeptide” (THE DOSHISHA, priority 2012, dated 2015)
